In patent publication US20160185797A1, “ALKYNYL ALCOHOLS AND METHODS OF USE” (Genentech, Inc., priority 2013, published 2016):
Read-outs that look alike come from different tables or passages of the source.

How the values were obtained:
[1] = test system: REL-A (p65) nuclear translocation in HeLa cells; assay: REL-A (p65) nuclear translocation assay in HeLa cells, TNF-α stimulated (classical NF-kB signaling), high content imaging; type: cell-based; details: compound 4.5 h, then 10 ng/mL TNF-α for 30 minutes, read-out: REL-A HeLa Transloc Assay (IC50)
Outline: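 HeLa cells in medium with 10% fetal bovine serum were exposed to compounds (0.2% DMSO final) for 4.5 hours, then stimulated with 10 ng/mL TNF-α for 30 minutes. After fixation in 4% paraformaldehyde and permeabilization with 0.1% Triton X-100, cells were stained with 400 ng/mL anti-REL-A (p65) antibody, an Alexa488 secondary and DRAQ5. Opera imaging quantified the nuclear-to-cytoplasmic signal ratio to give IC50.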

[2] = target: T1, nuclear factor-kappa B (NF-kB)-inducing kinase (NIK) (Homo sapiens, UniProt Q99558); assay: NIK enzyme inhibition assay (Transcreener ADP fluorescence polarization, NIK ADP-FP); type: biochemical
T1 construct: made in house; host or cells: baculovirus-infected insect cells
Procedure: NIK Enzyme Inhibition Assay:
The ability of the nuclear factor-kappa B (NF-kB)-inducing kinase (NIK) to catalyze the hydrolysis of adenosine-5′-triphosphate (ATP) was monitored using the Transcreener ADP (adenosine-5′-diphosphate) assay (BellBrook Labs). […] Reactions were quenched by the addition of 20 mM 2,2′,2″,2′″-(ethane-1,2-diyldinitrilo)tetraacetic acid and 0.01% Brij 35. The tracer bound to the antibody was displaced by the ADP generated during the NIK reaction, which causes a decrease in fluorescence polarization that was measured by laser excitation at 633 nm with a Fluorescence Correlation Spectroscopy Plus reader (Evotec AG). Equilibrium dissociation constant (Ki) values for NIK inhibitors are calculated from plots of activity vs. inhibitor concentration using Morrison's quadratic equation that accounts for the potential of tight binding, and by also applying the conversion factor that accounted for competitive inhibition and the concentration of substrate used in the assay relative to its Michaelis constant (Km).

[3] = test system: p52 (NF-kB2) nuclear translocation in HeLa cells; assay: p52 (NF-kB2) nuclear translocation assay in HeLa cells, anti-lymphotoxin beta receptor antibody stimulated (non-classical NF-kB signaling), high content imaging; type: cell-based; details: 100 ng/mL anti-lymphotoxin beta receptor antibody for 5 hours, read-out: p52 HeLa Transloc Assay (IC50)
Outline: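 HeLa cells in 10% FBS medium were treated with compound (0.2% DMSO final) and stimulated with 100 ng/mL anti-lymphotoxin beta receptor antibody for 5 h. Fixed cells were immunostained for p52 and imaged with DRAQ5 nuclear stain. Translocation is the nuclear to cytoplasmic intensity ratio, […].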

T1 sequence (Q99558 whole entry): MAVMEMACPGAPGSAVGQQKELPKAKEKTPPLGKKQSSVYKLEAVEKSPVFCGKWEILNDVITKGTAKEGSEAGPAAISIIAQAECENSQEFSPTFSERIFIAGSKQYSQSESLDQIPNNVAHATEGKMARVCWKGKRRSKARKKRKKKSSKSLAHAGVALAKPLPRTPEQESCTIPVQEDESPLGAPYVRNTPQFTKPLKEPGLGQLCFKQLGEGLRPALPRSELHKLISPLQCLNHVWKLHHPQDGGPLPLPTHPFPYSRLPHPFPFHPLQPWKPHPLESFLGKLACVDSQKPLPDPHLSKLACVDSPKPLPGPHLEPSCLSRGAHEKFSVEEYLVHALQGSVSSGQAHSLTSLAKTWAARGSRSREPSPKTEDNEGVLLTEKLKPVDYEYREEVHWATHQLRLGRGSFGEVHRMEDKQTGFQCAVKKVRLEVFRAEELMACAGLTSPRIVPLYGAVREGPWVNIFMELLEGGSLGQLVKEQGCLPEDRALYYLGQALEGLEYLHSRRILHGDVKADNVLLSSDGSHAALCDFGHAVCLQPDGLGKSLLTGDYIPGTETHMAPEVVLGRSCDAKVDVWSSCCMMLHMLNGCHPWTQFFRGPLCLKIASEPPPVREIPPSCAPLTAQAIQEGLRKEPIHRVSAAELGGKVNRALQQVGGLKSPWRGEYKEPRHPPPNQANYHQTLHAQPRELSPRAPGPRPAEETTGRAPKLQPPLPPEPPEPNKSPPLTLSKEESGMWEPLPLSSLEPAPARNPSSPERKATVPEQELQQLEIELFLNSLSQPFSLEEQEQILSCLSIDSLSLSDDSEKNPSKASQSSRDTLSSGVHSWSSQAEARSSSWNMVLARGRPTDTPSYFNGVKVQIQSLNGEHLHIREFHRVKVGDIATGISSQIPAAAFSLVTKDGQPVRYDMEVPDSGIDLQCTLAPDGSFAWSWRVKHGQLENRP

| SMILES | IC50 ([1]; Homo sapiens, HeLa) | Ki [2] | IC50 ([3]; Homo sapiens) | IC50 [1] | Ki ([2]; purified NIK 0.5 nM, 10 μM ATP, pH 7.2, Ki from Morrison's quadratic equation) | IC50 [3] |
| --- | --- | --- | --- | --- | --- | --- |
| CN1CC[C@@](O)(C#Cc2ccc(F)c(-c3cnc(N)c(C(N)=O)n3)c2)C1=O [Example 117, 3-amino-6-[2-fluoro-5-[2-[(3R)-3-hydroxy-1-methyl-2-oxo-pyrrolidin-3-yl]ethynyl]phenyl] pyrazine-2-carboxamide] | ≥ 20000 nM | 0.05 nM | 12.5 nM |  |  |  |
| CN1CC[C@@](O)(C#Cc2cccc(-c3nc(N)cc(C(N)=O)n3)c2)C1=O [Example 14, 6-amino-2-[3-[2-[(3R)-3-hydroxy-1-methyl-2-oxo-pyrrolidin-3-yl]ethynyl]phenyl]pyrimidine-4-carboxamide] | > 20000 nM | 0.38 nM | 665 nM |  |  |  |
| CN1CC[C@@](O)(C#Cc2cccc(-c3nc(C(N)=O)c(NC[C@H]4CCO4)cc3F)c2)C1=O [Example 82, 5-fluoro-6-[3-[2-[(3R)-3-hydroxy-1-methyl-2-oxo-pyrrolidin-3-yl]ethynyl]phenyl]-3-[[(2R)-oxetan-2-yl]methylamino] pyridine-2-carboxamide] | ≥ 2000 nM | 0.33 nM | 95.5 nM |  |  |  |
| CN1CC[C@@](O)(C#Cc2cccc(-c3nc(C(N)=O)cc(N4CCCC45COC5)n3)c2)C1=O [Example 21, 2-[3-[2-[(3R)-3-hydroxy-1-methyl-2-oxo-pyrrolidin-3-yl]ethynyl]phenyl]-6-(2-oxa-8-azaspiro[3.4]octan-8-yl) pyrimidine-4-carboxamide] | > 20000 nM | 1.2 nM | 84.2 nM |  |  |  |
| CCn1nccc1-c1cc(C(N)=O)nc(-c2cccc(C#C[C@]3(O)CCN(C)C3=O)c2)n1 [Example 67, 6-(2-ethylpyrazol-3-yl)-2-[3-[2-[(3R)-3-hydroxy-1-methyl-2-oxo-pyrrolidin-3-yl]ethynyl]phenyl] pyrimidine-4-carboxamide] |  |  |  | ≥ 20000 nM | 0.08 nM | 21.8 nM |
| COCCNc1cnc(-c2cc(C#C[C@]3(O)CCN(C)C3=O)ccc2F)nc1C(N)=O [Example 109, 2-[2-fluoro-5-[2-[(3R)-3-hydroxy-1-methyl-2-oxo-pyrrolidin-3-yl]ethynyl]phenyl]-5-(2-methoxyethylamino) pyrimidine-4-carboxamide] | ≥ 2000 nM | 0.28 nM | 83.1 nM |  |  |  |
| CN1CC[C@@](O)(C#Cc2cccc(-c3nc(C(N)=O)ccc3F)c2)C1=O [Example 15, 5-fluoro-6-[3-[2-[(3R)-3-hydroxy-1-methyl-2-oxo-pyrrolidin-3-yl]ethynyl]phenyl] pyridine-2-carboxamide] | > 20000 nM | 1.21 nM | 630 nM |  |  |  |
| COCCNc1cnc(-c2cc(C#C[C@]3(O)CCN(C)C3=O)c(F)cc2F)nc1C(N)=O [Example 153, 2-[2,4-difluoro-5[2-[(3R)-3-hydroxy-1-methyl-2-oxo-pyrrolidin-3-yl]ethynyl]phenyl]-5-(2-methoxyethylamino) pyrimidine-4-carboxamide] | > 2000 nM | 0.1 nM | 45 nM |  |  |  |
| CN1CC[C@@](O)(C#Cc2cccc(-c3nc(OC4COC4)c(N)c(C(N)=O)n3)c2)C1=O [Example 106, 5-amino-2-[3-[2-[(3R)-3-hydroxy-1-methyl-2-oxo-pyrrolidin-3-yl]ethynyl]phenyl]-6-(oxetan-3-yloxy)pyrimidine-4-carboxamide] | ≥ 2000 nM | 0.25 nM | 70 nM |  |  |  |
| Cc1cn[nH]c1-c1cc(C(N)=O)nc(-c2cccc(C#C[C@]3(O)CCN(C)C3=O)c2)n1 [Example 155, 2-[3-[2-[(3R)-3-hydroxy-l-methyl-2-oxo-pyrrolidin-3-yl]ethynyl]phenyl]-6-(4-methyl-1H-pyrazol-5-yl) pyrimidine-4-carboxamide] | > 2000 nM | < 0.05 nM | 277 nM |  |  |  |
| Cc1cc(C(N)=O)nc(-c2cccc(C#C[C@]3(O)CCN(C)C3=O)c2)c1F [Example 151, 5-fluoro-6-[3-[2-[(3R)-3-hydroxy-l-methyl-2-oxo-pyrrolidin-3-yl]ethynyl]phenyl]-4-methyl-pyridine-2-carboxamide] | > 2000 nM | 0.67 nM | 396 nM |  |  |  |
| CCn1ncc2c(-c3cccc(C#C[C@]4(O)CCN(C)C4=O)c3)nc(C(N)=O)cc21 [Example 114, 1-ethyl-4-[3-[2-[(3R)-3-hydroxy-1-methyl-2-oxo-pyrrolidin-3-yl]ethynyl]phenyl]pyrazolo[4,3-c] pyridine-6-carboxamide] | ≥ 2000 nM | 1.48 nM | 211 nM |  |  |  |
| Cc1cc(C(N)=O)nc(-c2cc(F)cc(C#C[C@]3(O)CCN(C)C3=O)c2)c1 [Example 168, 6-[3-fluoro-5-[2-[(3R)-3-hydroxy-1-methyl-2-oxo-pyrrolidin-3-yl]ethynyl]phenyl]-4-methyl-pyridine-2-carboxamide] | > 2000 nM | 0.16 nM | 130 nM |  |  |  |
| CN1CC[C@@](O)(C#Cc2cccc(-c3nc(C(N)=O)c(Cl)cc3F)c2)C1=O [Example 60, 3-chloro-5-fluoro-6-[3-[2-[(3R)-3-hydroxy-1-methyl-2-oxo-pyrrolidin-3-yl]ethynyl]phenyl] pyridine-2-carboxamide] | ≥ 20000 nM | 5.61 nM | 1390 nM |  |  |  |
| CN1CC[C@@](O)(C#Cc2cc(F)cc(-c3nc(C(N)=O)c(N)cc3F)c2)C1=O [Example 167, 3-amino-5-fluoro-6-[3-fluoro-5-[2-[(3R)-3-hydroxy-1-methyl-2-oxo-pyrrolidin-3-yl]ethynyl]phenyl]pyridine-2-carboxamide] | > 2000 nM | < 0.05 nM | 85 nM |  |  |  |
| CON(C)c1cc(C(N)=O)nc(-c2cccc(C#C[C@]3(O)CCN(C)C3=O)c2)n1 [Example 19, 2-[3-[2-[(3R)-3-hydroxy-1-methyl-2-oxo-pyrrolidin-3-yl]ethynyl]phenyl]-6-[methoxy (methyl)amino]pyrimidine-4-carboxamide] | > 20000 nM | 1.1 nM | 45.5 nM |  |  |  |
| CN1CC[C@@](O)(C#Cc2cccc(-c3nc(C(N)=O)c4ccccc4n3)c2)C1=O [Example 4, 2-[3-[2-[(3R)-3-hydroxy-1-methyl-2-oxo-pyrrolidin-3-yl]ethynyl]phenyl]quinazoline-4-carboxamide] | > 20000 nM | 0.05 nM | 31.9 nM |  |  |  |
| CN1CC[C@@](O)(C#Cc2cccc(-c3ncc(NCC(F)(F)F)c(C(N)=O)n3)c2)C1=O [Example 146, 2-[3-[2-[(3R)-3-hydroxy-1-methyl-2-oxo-pyrrolidin-3-yl]ethynyl]phenyl]-5-(2,2,2-trifluoroethylamino) pyrimidine-4-carboxamide] | ≥ 20000 nM | 0.37 nM | 11.6 nM |  |  |  |
| Cc1cnc2c(-c3cccc(C#C[C@]4(O)CCN(C)C4=O)c3)nc(C(N)=O)cn12 [Example 75, 8-[3-[2-[(3R)-3-hydroxy-1-methyl-2-oxo-pyrrolidin-3-yl]ethynyl]phenyl]-3-methyl-imidazo[1,2-a]pyrazine-6-carboxamide] | ≥ 20000 nM | 0.38 nM | 66.8 nM |  |  |  |
| Cc1cc(C(N)=O)nc(-c2cccc(C#C[C@]3(O)CCN(C)C3=O)c2)n1 [Example 13, 2-[3-[2-[(3R)-3-hydroxy-1-methyl-2-oxo-pyrrolidin-3-yl]ethynyl]phenyl]-6-methyl-pyrimidine-4-carboxamide] | > 20000 nM | 0.48 nM | 382 nM |  |  |  |
| COC[C@H](C)Nc1ccc(-c2cc(C#C[C@]3(O)CCN(C)C3=O)ccc2F)nc1C(N)=O [Example 149, 6-[2-fluoro-5-[2-[(3R)-3-hydroxy-1-methyl-2-oxo-pyrrolidin-3-yl]ethynyl]phenyl]-3-[[(1S)-2-methoxy-1-methyl-ethyl]amino]pyridine-2-carboxamide] | ≥ 2000 nM | 0.88 nM | 51.1 nM |  |  |  |
| CN1CC[C@@](O)(C#Cc2cccc(-c3nc(C(N)=O)cc(-c4cnccn4)n3)c2)C1=O [Example 96, 2-[3-[2-[(3R)-3-hydroxy-1-methyl-2-oxo-pyrrolidin-3-yl]ethynyl]phenyl]-6-pyrazin-2-yl-pyrimidine-4-carboxamide] | ≥ 20000 nM | 0.45 nM | 34.7 nM |  |  |  |
| CN1CC[C@@](O)(C#Cc2cccc(-c3nc(C(N)=O)cc(N(C)C)n3)c2)C1=O [Example 6, 6-(dimethylamino)-2-[3-[2-[(3R)-3-hydroxy-1-methyl-2-oxo-pyrrolidin-3-yl]ethynyl]phenyl] pyrimidine-4-carboxamide] | > 20000 nM | 0.83 nM | 108 nM |  |  |  |
| CN1CC[C@@](O)(C#Cc2cccc(-c3nc(C(N)=O)c(N)cc3F)c2)C1=O [Example 59, 3-amino-5-fluoro-6-[3-[2-[(3R)-3-hydroxy-1-methyl-2-oxo-pyrrolidin-3-yl]ethynyl]phenyl] pyridine-2-carboxamide] | 6320 nM | 0.16 nM | 23.2 nM |  |  |  |
| CN1CC[C@@](O)(C#Cc2cccc(-c3nc(C(N)=O)nc4ccsc34)c2)C1=O [Example 36, 4-[3-[2-[(3R)-3-hydroxy-1-methyl-2-oxo-pyrrolidin-3-yl]ethynyl]phenyl]thieno[3,2-d]pyrimidine-2-carboxamide] | > 20000 nM | 0.184 nM | 314 nM |  |  |  |
